What was measured:
[1] = target: T1, Lysyl oxidase homolog 2 (Homo sapiens) (UniProt Q9Y4K0); assay: Inhibition of recombinant LOXL2 (unknown origin) expressed in NS0 cells at 10 uM using diaminopentane as substrate preincubated for 30 mins followed by substrate addition measured after 1 hr by fluorimetric method relative to control
T1 sequence (whole entry): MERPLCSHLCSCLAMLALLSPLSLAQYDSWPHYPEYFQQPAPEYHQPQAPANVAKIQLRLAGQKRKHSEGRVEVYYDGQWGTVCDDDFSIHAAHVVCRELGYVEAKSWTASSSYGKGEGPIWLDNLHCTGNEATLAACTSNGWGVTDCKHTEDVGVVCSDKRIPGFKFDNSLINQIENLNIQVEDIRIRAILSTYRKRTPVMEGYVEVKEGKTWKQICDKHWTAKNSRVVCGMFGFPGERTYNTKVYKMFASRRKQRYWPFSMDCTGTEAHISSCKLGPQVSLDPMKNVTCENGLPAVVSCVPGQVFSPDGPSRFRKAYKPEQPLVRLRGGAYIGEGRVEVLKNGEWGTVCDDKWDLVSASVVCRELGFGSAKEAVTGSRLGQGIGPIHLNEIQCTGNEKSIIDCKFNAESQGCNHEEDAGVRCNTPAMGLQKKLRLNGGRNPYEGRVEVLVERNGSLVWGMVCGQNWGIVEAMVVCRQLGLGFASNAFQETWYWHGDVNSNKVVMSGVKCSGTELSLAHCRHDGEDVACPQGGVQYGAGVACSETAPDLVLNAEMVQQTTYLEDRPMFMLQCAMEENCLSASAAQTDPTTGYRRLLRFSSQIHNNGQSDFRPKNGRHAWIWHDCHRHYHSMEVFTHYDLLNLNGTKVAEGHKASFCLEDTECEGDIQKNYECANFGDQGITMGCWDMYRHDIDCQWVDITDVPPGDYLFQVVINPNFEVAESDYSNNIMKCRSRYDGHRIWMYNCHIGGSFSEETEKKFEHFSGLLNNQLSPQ

[2] = target: T2, Lysyl oxidase homolog 4 (Homo sapiens) (UniProt Q96JB6); assay: Inhibition of recombinant human LOXL4 expressed in baculovirus infected insect cells at 10 uM using diaminopentane as substrate preincubated for 30 mins followed by substrate addition measured after 1 hr by fluorimetric method relative to control
T2 sequence (whole entry): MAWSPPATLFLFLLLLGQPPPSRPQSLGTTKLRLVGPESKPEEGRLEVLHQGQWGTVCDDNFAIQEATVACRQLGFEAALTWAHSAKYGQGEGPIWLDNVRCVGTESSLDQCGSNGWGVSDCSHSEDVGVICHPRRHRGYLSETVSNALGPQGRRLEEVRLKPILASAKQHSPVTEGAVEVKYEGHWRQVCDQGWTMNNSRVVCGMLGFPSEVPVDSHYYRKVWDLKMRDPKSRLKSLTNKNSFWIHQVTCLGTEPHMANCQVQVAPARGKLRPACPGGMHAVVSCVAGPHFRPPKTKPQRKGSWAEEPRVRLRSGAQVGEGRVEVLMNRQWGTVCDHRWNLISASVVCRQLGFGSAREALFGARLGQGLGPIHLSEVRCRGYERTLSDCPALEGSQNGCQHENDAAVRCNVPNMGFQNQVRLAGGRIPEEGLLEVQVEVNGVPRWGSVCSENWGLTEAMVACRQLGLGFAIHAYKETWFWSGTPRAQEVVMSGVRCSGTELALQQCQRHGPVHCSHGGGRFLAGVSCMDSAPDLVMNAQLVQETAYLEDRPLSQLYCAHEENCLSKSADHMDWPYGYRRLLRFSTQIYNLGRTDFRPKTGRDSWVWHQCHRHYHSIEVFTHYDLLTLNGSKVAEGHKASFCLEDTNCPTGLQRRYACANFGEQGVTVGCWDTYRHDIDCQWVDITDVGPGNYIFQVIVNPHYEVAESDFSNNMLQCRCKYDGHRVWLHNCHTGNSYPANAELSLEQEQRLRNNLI

[3] = target: T3, Lysyl oxidase homolog 4 (Homo sapiens, UniProt Q96JB6); assay: Inhibition of recombinant human LOXL4 expressed in baculovirus infected insect cells using diaminopentane as substrate preincubated for 30 mins followed by substrate addition measured after 1 hr by fluorimetric method
T3 sequence (Q96JB6 whole entry): T2 sequence (whole entry)

[4] = target: T4, Lysyl oxidase homolog 2 (Homo sapiens, UniProt Q9Y4K0); assay: Inhibition of recombinant LOXL2 (unknown origin) expressed in NS0 cells using diaminopentane as substrate preincubated for 30 mins followed by substrate addition measured after 1 hr by fluorimetric method
T4 sequence (Q9Y4K0 whole entry): T1 sequence (whole entry)

[5] = target: T5, Lysyl oxidase homolog 3 (Homo sapiens, UniProt P58215); assay: Inhibition of recombinant human LOXL3 expressed in CHO cells using diaminopentane as substrate preincubated for 30 mins followed by substrate addition measured after 1 hr by fluorimetric method
T5 sequence (P58215 whole entry): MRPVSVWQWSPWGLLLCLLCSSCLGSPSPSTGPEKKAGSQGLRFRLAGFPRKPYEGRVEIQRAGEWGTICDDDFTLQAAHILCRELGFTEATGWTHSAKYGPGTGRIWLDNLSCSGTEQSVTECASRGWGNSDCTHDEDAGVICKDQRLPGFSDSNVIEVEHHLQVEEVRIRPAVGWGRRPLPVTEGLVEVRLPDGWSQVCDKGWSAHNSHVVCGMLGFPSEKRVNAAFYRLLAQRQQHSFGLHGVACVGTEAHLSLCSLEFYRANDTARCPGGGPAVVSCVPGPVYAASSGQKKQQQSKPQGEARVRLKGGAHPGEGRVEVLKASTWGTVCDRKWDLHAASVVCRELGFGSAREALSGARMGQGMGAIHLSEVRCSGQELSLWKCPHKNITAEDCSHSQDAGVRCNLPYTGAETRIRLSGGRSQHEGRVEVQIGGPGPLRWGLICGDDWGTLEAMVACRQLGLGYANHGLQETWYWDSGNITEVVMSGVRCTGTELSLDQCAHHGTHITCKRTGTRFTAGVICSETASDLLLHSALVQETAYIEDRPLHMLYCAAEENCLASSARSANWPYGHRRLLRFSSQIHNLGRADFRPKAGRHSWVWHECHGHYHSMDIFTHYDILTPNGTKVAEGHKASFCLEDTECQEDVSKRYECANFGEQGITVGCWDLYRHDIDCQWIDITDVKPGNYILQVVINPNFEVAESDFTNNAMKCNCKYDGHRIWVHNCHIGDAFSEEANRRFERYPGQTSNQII

[6] = target: T6, Protein-lysine 6-oxidase (Homo sapiens, UniProt P28300); assay: Inhibition of recombinant human LOX expressed in HEK293 cells using diaminopentane as substrate preincubated for 30 mins followed by substrate addition measured after 1 hr by fluorimetric method; type: cell-based
T6 sequence (P28300 whole entry): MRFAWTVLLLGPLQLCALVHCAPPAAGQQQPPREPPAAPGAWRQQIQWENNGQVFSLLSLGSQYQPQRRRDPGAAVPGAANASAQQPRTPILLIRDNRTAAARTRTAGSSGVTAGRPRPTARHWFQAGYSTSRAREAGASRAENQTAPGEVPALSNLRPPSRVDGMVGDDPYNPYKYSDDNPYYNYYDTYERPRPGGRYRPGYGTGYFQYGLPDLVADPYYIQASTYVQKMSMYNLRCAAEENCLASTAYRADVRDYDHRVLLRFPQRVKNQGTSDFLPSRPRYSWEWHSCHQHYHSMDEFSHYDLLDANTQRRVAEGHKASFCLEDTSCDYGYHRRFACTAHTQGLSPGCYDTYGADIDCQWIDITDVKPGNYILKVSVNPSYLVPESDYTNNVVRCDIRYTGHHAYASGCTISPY

Compound | inhibition [1] [%] | inhibition [2] [%] | IC50 [3] [µM] | IC50 [4] [µM] | IC50 [5] [µM] | IC50 [6] [µM]
COc1ccccc1-c1cc(=O)c2c(=O)n(-c3ccccc3)[nH]c2[nH]1 | < 40 | < 40 | > 100 | 45 | – | –
CCN1/C(=C2\C(=O)N(c3ccccc3)N=C2Nc2ccccc2)C=Cc2ccccc21 | < 40 | < 40 | > 100 | 1 | – | –
CC1=NN(c2ccccc2)C(=O)C1C (stereo not drawn) | < 40 | < 40 | 2.1 | 2.1 | 1.3 | 2.6
O=c1c2cccnc2[nH]c(=S)n1-c1ccccc1 | < 40 | < 40 | > 100 | 75 | 18 | > 100
Cc1cc(C)c2c(=O)n(-c3ccccc3)[nH]c2n1 | < 40 | < 40 | > 100 | 25 | > 100 | 35
CC1=NN(c2ccccc2)C(=O)/C1=C/NNc1nnc(C)c(O)n1 | < 40 | < 40 | > 100 | 34 | – | –
CCOC(=O)c1sc(N/N=C2\C(=O)N(c3ccccc3)N=C2N)c(C(=O)OCC)c1C | < 40 | < 40 | 3.3 | > 100 | > 100 | –
Cc1cc(-c2ccc3c(=O)n(-c4ccccc4)[nH]c3n2)c(C)o1 | < 40 | < 40 | 55 | 3.8 | – | –
N#CCCN | – | < 40 | > 100 | 0.073 | 0.17 | > 100
O=c1c2ccc(-c3cccs3)nc2[nH]n1-c1ccccc1 | < 40 | < 40 | > 100 | 7.8 | – | > 100
CC(C)(C)C1=NN(c2ccccc2)C(=O)C1 | < 40 | < 40 | > 100 | > 100 | > 100 | 75
[O-][n+]1ccccc1S [PYRITHIONE] | < 40 | < 40 | 15 | 18 | 12 | 33
CN(C)C(=S)SSC(=S)N(C)C [THIRAM] | < 40 | < 40 | 0.18 | 0.17 | 0.11 | 1.04
CCN(CC)C(=S)SSC(=S)N(CC)CC [DISULFIRAM] | < 40 | < 40 | 0.059 | 0.15 | 0.093 | 0.32

From ChEMBL document CHEMBL4229522, “Inhibition of the LOX enzyme family members with old and new ligands. Selectivity analysis revisited” (Bioorg Med Chem Lett, 2018)
